Source: article PMC10850913 (Heliyon, 2024)
Where two headings read alike, the source gives them in different places.

Columns and labels:
platelets = experiment: Platelet aggregation study; assay type: cell-based, rats; details: blood incubated 2 h, Leishman-stained slides
Experimental: A 1 mL blood sample was collected in heparinized tubes to prevent coagulation. […] The platelet aggregation was then examined both quantitatively and qualitatively. The qualitative analysis was conducted through microscopic examination of stained blood smears. Blood smears were prepared on clean glass slides after the 2-h incubation period. The slides were air-dried and subsequently stained with Leishman's stain for 5 min (Span Diagnostics, India). Following the staining, the slides were rinsed with distilled water, and a cover glass was placed on each slide for visualization under an optical microscope using an immersion objective. Images were captured using a digital camera.
As a control, whole blood incubated with an equivalent volume of PBS was used as the spontaneous control.

HCT116 cells [1] = experiment: Cellular apoptosis (Annexin V FITC/PI flow cytometry); assay type: cell-based; details: HCT116, IC50 dose
Experimental: HCT116 cell lines were seeded, cultured and subjected up to IC-50 dose of compound. Subsequent to treatment, cells underwent two washes with cold PBS. Resuspended cells were placed in 1X binding buffer at a concentration of 1x10^6 cells/ml, and the cells were divided into distinct groups, namely Unstained cells, Control group, Annexin only, PI only, and Treatment. Following the division into labelled tubes, Annexin V FITC and PI were introduced to their respective tubes. After vortexing and an incubation period of 15 min at room temperature, 1X Binding buffer was added to each tube. Subsequently, the samples were analyzed by a Flow Cytometer within 1 h.

[2] = In vitro drug release (dialysis tube) and kinetic models; assay type: physicochemical; details: PBS pH 5.5, 37 °C
Experimental: We utilized a dialysis tube diffusion system to characterize the in vitro release of drugs from the formulations. This system provides a controlled environment to study the rate and extent of drug release from the formulations, reflecting their potential drug delivery behaviour. […] Tube was inserted into 50 mL of PBS (pH 5.5) with both ends tightened. In order to provide the sink conditions, PBS quantifying to 0.5 mL was added. Formulated medium was heated up to 37 ± 0.5 °C and stirred continuously at speed of 200 rpm. At predefined intervals, a 5 mL sample was taken, and an equal volume of new medium was introduced to keep the final volume, or sink condition, throughout experiment. All test samples were analyzed in triplicate manner and results are expressed as mean ± SD (n = 3).
To elucidate the kinetics and mechanisms governing drug release, we employed regression analysis to fit the experimental drug release data to various mathematical models. This analysis yielded coefficient constants that shed light on the order of release and the underlying mechanisms involved. (See Supportive Information for further details).

HCT116 cells [3] = experiment: Wound healing (scratch) assay; assay type: cell-based; details: HCT-116, after 48 h, compared to control
Experimental: The following day, a scratch was made in the cell monolayer using a 200 μl tip, and the cells were subsequently treated with the specified concentration of the formulation. Photographs were taken at various time intervals ranging from 0 to 48 h.
The gap area resulting from the scratch was analyzed using Image J Software (NCBI) and was further presented in a graphical format to illustrate the changes over time.

HCT116 cells [4] = experiment: Mitochondrial membrane potential estimation (JC-1 flow cytometry); assay type: cell-based; details: HCT-116, IC50 dose, 24 h
Experimental: After the incubation period, the medium was aspirated, and cells were harvested using trypsin EDTA. The harvested cells were collected in a 1.5 ml tube and subjected to a single wash with 500 μl of chilled PBS. Subsequently, the cell pellets were resuspended in 400 μl of JC1 staining buffer containing 2 μM JC-1 dye. The samples were then promptly acquired using a Flow Cytometer within a 1-h timeframe.

HT-29 cell line = test system: HT-29 cell line; parameters: method as in PMID 31149165; details: 1000 μg/mL, MTT assay; cited from earlier work
Tissue distribution = assay type: in vivo; details: male, albino Wistar, rat, intravenous, 15 mg/kg, rats, 8 h after administration
Experimental: To assess the distribution and concentration of a medication within the body following delivery, tissue distribution studies were conducted. Twelve male albino Wistar rats were divided into two groups, each comprising six rats, following the approved institutional protocol by the Committee for the Purpose of Control and Supervision of Experiments on Animals (CPCSEA) (Ref. No.: SPTM/2022/IAEC/18).
The medications evaluated for tissue distribution were ENZ and the formulation ENZ-PLGA-PSAR-TPGS NPs. After administering the doses for 8 h, the rats were euthanized. Tissue samples, including liver, heart, kidney, lungs, brain, colon, small intestine, stomach, and rectum muscle tissues, were collected. Brain endothelial cells were obtained using a stereotaxic apparatus (USA, Model No. 51500). The collected tissue samples were homogenized in a cold physiological solution and filtered after rinsing with saline water (0.9 percent sodium chloride).
Subsequently, the samples were analyzed using RP-UHPLC (Dionex Ultimate, 3000) to determine the distribution and concentration of the medications in various tissues.

[5] = Pharmacokinetics after intravenous administration; assay type: in vivo, male Albino Wistar rats; details: rats, 15 mg/kg intravenously
Experimental: In accordance with the ethical approval (SPTM/2022/IAEC/18), nine male Albino Wistar rats weighing between 200 and 250 g were divided into three groups (n = 3) for proper conduct of pharmacokinetic experiments.
Blood samples (500 μL) were collected from the rats' tail veins into heparinized tubes and cold centrifuged at 13,500 rpm for 10 min at 4 °C to separate plasma from blood. Subsequently, 100 μL of the separated plasma was mixed with 200 μL of acetonitrile, vortexed for 3 min to extract proteins, and cold centrifuged again at 13,500 rpm for 5 min at 4 °C.
The supernatant was then diluted with methanol, passed through a membrane filter, and subjected to analysis using a High-Performance Liquid Chromatography (HPLC) system. Isocratic elution was performed with a mobile phase consisting of a 20 mM ammonium acetate buffer and acetonitrile in a 60:40 ratio, at a flow rate of 1.0 mL/min, utilizing a C18 column.

erythrocytes = experiment: Haemolysis study; assay type: cell-based, male albino rats; details: rat erythrocytes, 100 μg/ml
Experimental: For […] control identification, Triton X-100 treatment was employed. A 4 mL blood sample was drawn from male albino rats (220g) using a 23-gauge needle from the lateral saphenous vein of the animal (SPTM/2022/IAEC/18). The blood sample was then centrifuged at 1344×g for 10 min, and the plasma layer was carefully removed. The erythrocytes were washed three times with saline water and incubated with a 100 μg/mL concentration of the samples at 37 °C. Samples of 200 μL each were collected at 0, 1–10 h and centrifuged at 1344×g for 10 min.
During the incubation, hemoglobin transformed into oxyhemoglobin. The obtained erythrocytes were observed under a microscope, and absorbance readings were taken at 570 nm for different concentrations of samples. All test samples were analyzed in triplicate, and the results are expressed as mean ± SD (n = 3). The percentage of hemolysis can be calculated using the following equation.

[6] = test system: castration-resistant prostate cancer (CRPC); details: patients with CRPC; cited from earlier work
[7] = cited from earlier work
HCT116 cells [8] = experiment: Cell cycle analysis (PI, flow cytometry); assay type: cell-based; details: HCT116, IC50 concentration, 24 h
Experimental: Following the incubation period, cells were harvested using trypsin and collected in a 1.5 ml tube. After a single wash with 500 μl of chilled PBS, approximately 1 x 10^6 cells were suspended in 100 μl of PBS. The cell suspension was gently vortexed to achieve a mono-dispersed cell suspension with minimal aggregation. Subsequently, the cells were fixed by transferring this suspension with a pipette into centrifuge tubes containing 900 μl of 70 % ethanol, placed on ice, and then incubated for a minimum of 2 h at 4 °C. The fixed cells could be stored in 70 % ethanol at 4 °C for several weeks.
After fixation, the cells were centrifuged, and the pellet was suspended in 500 μl of Propidium Iodide (PI) staining solution (0.1 % (v/v) Triton X-100, 10 μg/ml PI, and 100 μg/ml DNase-free RNaseA in PBS). This suspension was kept in the dark at room temperature for 30 min or at 37 °C for 10 min. The samples were then acquired on a flow cytometer.

[9] = male, Albino Wistar, rat, plasma, iv

With CNC(=O)c1ccc(N2C(=S)N(c3ccc(C#N)c(C(F)(F)F)c3)C(=O)C2(C)C)cc1F [ENZ, Enzalutamide] the platelet aggregation (platelets) was “no aggregation”, the “early apoptosis (lower right quadrant)” value (HCT116 cells [1]) was 2.7% and the “late apoptosis (upper right quadrant)” value (HCT116 cells [1]) was 10.1%. For the same compound, the “live cells (lower left quadrant)” value (HCT116 cells [1]) was 72.6%, the pattern of release [2] was “poor” and the “inhibition of wound area” value (HCT116 cells [3]) was “inhibited the wound area”. For the same compound, the “High MMP cells” value (HCT116 cells [4]) was 3.5%, the “live cells in MMP assay” value (HCT116 cells [4]) was 52.7% and the “low MMP cells” value (HCT116 cells [4]) was 41.7%. The cell viability (HT-29 cell line) was “significant decrease”, the concentration at 8 h (Tissue distribution; brain, read-out: Concentration in Brain) was 0.7 ± 0.1 ng/mL and the concentration at 8 h (Tissue distribution; colon, read-out: Concentration in Colon) was 0.95 ± 0.5 ng/mL. It also gave a concentration at 8 h (Tissue distribution; heart, read-out: Concentration in Heart) of 0.8 ± 1.1 ng/mL, a concentration at 8 h (Tissue distribution; kidney, read-out: Concentration in Kidney) of 0.57 ± 0.21 ng/mL and a concentration at 8 h (Tissue distribution; liver, read-out: Concentration in Liver) of 1.2 ± 0.13 ng/mL. For the same compound, the concentration at 8 h (Tissue distribution; lungs, read-out: Concentration in Lungs) was 0.5 ± 0.102 ng/mL, the concentration at 8 h (Tissue distribution; rectum, read-out: Concentration in Rectum) was 3.07 ± 0.4 ng/mL and the concentration at 8 h (Tissue distribution; spleen, read-out: Concentration in Spleen) was 0.3 ± 0.1 ng/mL. It also gave a concentration at 8 h (Tissue distribution; stomach, read-out: Concentration in Stomach) of 0.21 ± 0.12 ng/mL, an MRT [5, 9] of 5.34 ± 2.43 h and a Vd [5, 9] of 1.4 ± 0.00356 L. For the same compound, the clearance [5, 9] was 1.51 mL/min, the C [5] was 226.24 ± 31.2 ng/mL and the “lysis of RBCs (microscopy)” value (erythrocytes) was “no occurrence of eruption or lysis of the RBCs”. The extension of survival [6] was 4.8 months, the pKa [7] was 4.16 and the “cells in G1 phase” value (HCT116 cells [8]) was 49.6%. For the same compound, the “cells in G2 (G2/M) phase” value (HCT116 cells [8]) was 14.5%.
